From ChEMBL document CHEMBL1150494, “Inhibitory effect on HT-1080 tumor cell invasion in vitro using 9-(2-hydroxyethyl)adenine 2-phosphates” (1997) come the findings set out here.

Structures are written as SMILES.

Assay [1] concerns HT-1080. The experiment in a line: In vitro inhibitory activity against HT1080 tumor cell invasion using Matrigel (MG) at a concentration of 100 uM. It counts as functional, Homo sapiens.
The target of assay [2] is Matrix metalloproteinase-9 (Homo sapiens) (UniProt P14780). The experiment in a line: Inhibition of collagen IV degradation by matrix metalloprotease-9 at 100 uM.
Matrix metalloproteinase-9 (Homo sapiens), sequence (P14780 whole entry): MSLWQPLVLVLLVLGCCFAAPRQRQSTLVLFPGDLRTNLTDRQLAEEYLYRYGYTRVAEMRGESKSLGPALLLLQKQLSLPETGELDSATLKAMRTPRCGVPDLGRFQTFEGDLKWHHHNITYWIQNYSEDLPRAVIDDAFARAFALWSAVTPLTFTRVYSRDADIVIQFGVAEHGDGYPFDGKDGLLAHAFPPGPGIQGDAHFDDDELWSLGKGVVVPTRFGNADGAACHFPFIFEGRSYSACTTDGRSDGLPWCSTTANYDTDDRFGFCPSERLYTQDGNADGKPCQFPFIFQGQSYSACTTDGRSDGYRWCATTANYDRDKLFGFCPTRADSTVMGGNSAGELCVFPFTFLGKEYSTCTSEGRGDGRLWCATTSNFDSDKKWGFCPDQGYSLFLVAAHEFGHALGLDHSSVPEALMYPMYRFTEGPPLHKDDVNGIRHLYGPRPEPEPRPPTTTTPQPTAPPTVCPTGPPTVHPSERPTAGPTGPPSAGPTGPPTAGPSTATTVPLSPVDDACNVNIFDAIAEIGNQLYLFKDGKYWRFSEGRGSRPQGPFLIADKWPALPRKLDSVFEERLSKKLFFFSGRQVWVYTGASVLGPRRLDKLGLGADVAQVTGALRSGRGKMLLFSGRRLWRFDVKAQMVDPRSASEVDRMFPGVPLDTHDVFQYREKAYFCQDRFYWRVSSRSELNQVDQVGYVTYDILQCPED
Assay [3] shares this target. The experiment in a line: Inhibition of collagen IV degradation by matrix metalloprotease-9 at 10 uM.
Assay [4] has as its system HT-1080. Kind of assay: In vitro inhibitory activity against HT1080 tumor cell invasion using Matrigel (MG) at a concentration of 10 uM. It is filed as functional, Homo sapiens.

For `Nc1ncnc2c1ncn2CCOP(=O)(O)OP(=O)(O)OP(=O)(O)O`, the Inhibition ratio in assay [1] was approximately 36%; in assay [2], 69%; in assay [3], 53%; in assay [4], approximately 35%.

For the compound `O=P(O)(O)OCCn1cnc2c(Cl)ncnc21`, the Inhibition ratio is approximately 12% in assay [1] and 12% in assay [2].

In the case of `Nc1ncnc2c1nc(Br)n2CCOP(=O)(O)O`, the Inhibition ratio in assay [1] is approximately 41%; in assay [2], 41%; in assay [3], 23%; in assay [4] it was approximately 23%.

Take `Nc1ncnc2c1ncn2CCOP(=O)(O)O`: the Inhibition ratio in assay [1] stood at 53%; in assay [2], 57%; in assay [3] it was 32%; in assay [4], 46%.

Turning to `Nc1ncnc2c1ncn2CCO`, the Inhibition ratio in assay [1] was approximately 50%; in assay [2], 18%; in assay [3] it was 2%; in assay [4], approximately 2%.

Take `CNc1ncnc2c1ncn2CCOP(=O)(O)O`: the Inhibition ratio in assay [1] was approximately 54%; in assay [2], 55%; in assay [3], 46%; in assay [4] it was approximately 46%.
